T/C data for 25 compounds are collected here from PubChem BioAssay AID328 (DTP/NCI, 2004).

Values joined by “and” are separate entries in the source; they are usually repeats but may differ in a detail not shown here. Equal entries are not always repeated. Toxic doses and inconclusive results are not listed.

The test system of the experiment is BDF1 mice, P388 leukemia ip, median survival T/C. In words: NCI In Vivo Anticancer Drug Screen. Data for tumor model P388 Leukemia (intraperitoneal) in B6D2F1 (BDF1) mice. The conditions noted are these: endpoint: median survival time, higher = longer survival. Put shortly: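 Vehicle-dosed animals serve as the reference; survival of compound-dosed, tumour-implanted mice is divided by it.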

The mark [1] stands for this setting: dose: 6.25 mg/kg/injection, schedule: Q01DX009 (ip), vehicle: saline.
Where [2] appears, read: dose: 25.0 mg/kg/injection, schedule: Q01DX009 (ip), vehicle: saline.
Where [3] appears, read: dose: 100.0 mg/kg/injection, schedule: Q01DX001 (ip), vehicle: saline with Tween-80.
[4] abbreviates: dose: 200.0 mg/kg/injection, schedule: Q01DX001 (ip), vehicle: saline with Tween-80.
The mark [5] stands for this setting: dose: 100.0 mg/kg/injection, schedule: Q01DX009 (ip), vehicle: saline with Tween-80.
Setting [6] is: dose: 200.0 mg/kg/injection, schedule: Q01DX009 (ip), vehicle: saline with Tween-80.
The mark [7] stands for this setting: dose: 25.0 mg/kg/injection, schedule: Q01DX009 (ip), vehicle: saline with Tween-80.
The mark [8] stands for this setting: dose: 50.0 mg/kg/injection, schedule: Q01DX009 (ip), vehicle: saline with Tween-80.
The mark [9] stands for this setting: dose: 50.0 mg/kg/injection, schedule: Q04DX003 (ip), vehicle: saline with Tween-80.
[10] abbreviates: dose: 100.0 mg/kg/injection, schedule: Q04DX003 (ip), vehicle: saline with Tween-80.
Where [11] appears, read: dose: 200.0 mg/kg/injection, schedule: Q04DX003 (ip), vehicle: saline with Tween-80.
Where [12] appears, read: dose: 50.0 mg/kg/injection, schedule: Q01DX009 (ip), vehicle: saline.
[13] abbreviates: dose: 400.0 mg/kg/injection, schedule: Q01DX001 (ip), vehicle: saline with Tween-80.

For the compound `O=c1cc(CO)occ1O.O=c1cc(CO)occ1O.[O]=[V]`, the T/C by setting is: under setting [1], 105 % of control; (dose: 12.5 mg/kg/injection, schedule: Q01DX009 (ip), vehicle: saline) 94 % of control; under setting [2], 100 % of control.
Take `Cn1c2ccccc2c(=S)c2ccccc21`: the T/C was 89 % of control under setting [3] and 90 % of control under setting [4].
Regarding `O=C(Cn1ccc(O)cc1=O)c1cccs1`, the T/C was 97 % of control under setting [5]; 97 % of control under setting [6]; 97 % of control (dose: 400.0 mg/kg/injection, schedule: Q01DX009 (ip), vehicle: saline with Tween-80).
Consider `O=[N+]([O-])c1ccccc1SNc1ccc(NSc2ccccc2[N+](=O)[O-])cc1`, for which the T/C reads like this: (dose: 3.13 mg/kg/injection, schedule: Q01DX001 (ip), vehicle: saline with Tween-80) 104 % of control; (dose: 6.25 mg/kg/injection, schedule: Q01DX001 (ip), vehicle: saline with Tween-80) 109 % of control; (dose: 12.5 mg/kg/injection, schedule: Q01DX001 (ip), vehicle: saline with Tween-80) 95 % of control.
For the compound `CCCCCCCCCCCCCCCCS(=O)(=O)N/N=C/C(=O)O`, the T/C (dose: 12.5 mg/kg/injection, schedule: Q01DX009 (ip), vehicle: other) is 116 % of control.
In the case of `CCOC(=O)C(Cc1ccccc1Cl)(Cc1ccccc1Cl)c1ccccc1`, the T/C runs as follows: under setting [5], 106 % of control; under setting [6], 100 % of control.
Take `NC(=S)c1c(N)n(C2OC(CO)C(O)C2O)c2ncnc(N)c12` (stereo not drawn): the T/C is 114 % of control (dose: 12.5 mg/kg/injection, schedule: Q04DX003 (ip), vehicle: saline) and 112 % of control (dose: 25.0 mg/kg/injection, schedule: Q04DX003 (ip), vehicle: saline).
`COC(=O)c1ccc(Cl)c(Cl)c1`: the T/C under setting [7] was 101 % of control; the T/C (dose: 25.0 mg/kg/injection, schedule: Q04DX003 (ip), vehicle: saline with Tween-80) was 102 % of control; the T/C under setting [8] is 116 % of control; the T/C under setting [9] was 94 % of control and 100 % of control and 108 % of control; the T/C under setting [10] was 97 % of control and 98 % of control and 103 % of control; the T/C (dose: 150.0 mg/kg/injection, schedule: Q04DX003 (ip), vehicle: saline with Tween-80) was 98 % of control. Moreover, the T/C under setting [11] is 108 % of control and 112 % of control; the T/C (dose: 300.0 mg/kg/injection, schedule: Q04DX003 (ip), vehicle: saline with Tween-80) was 110 % of control; the T/C (dose: 400.0 mg/kg/injection, schedule: Q04DX003 (ip), vehicle: saline with Tween-80) is 107 % of control.
Turning to `CC1=CC(C)(C)NC(=S)N1c1ccccc1`, the T/C (dose: 75.0 mg/kg/injection, schedule: Q04DX003 (ip), vehicle: Klucel (hydroxypropylcellulose) (HPC)) is 100 % of control; the T/C (dose: 100.0 mg/kg/injection, schedule: Q01DX001 (ip), vehicle: Klucel (hydroxypropylcellulose) (HPC)) was 95 % of control; the T/C (dose: 150.0 mg/kg/injection, schedule: Q04DX003 (ip), vehicle: Klucel (hydroxypropylcellulose) (HPC)) was 100 % of control; the T/C (dose: 200.0 mg/kg/injection, schedule: Q01DX001 (ip), vehicle: Klucel (hydroxypropylcellulose) (HPC)) was 104 % of control; the T/C (dose: 300.0 mg/kg/injection, schedule: Q04DX003 (ip), vehicle: Klucel (hydroxypropylcellulose) (HPC)) is 100 % of control; the T/C (dose: 400.0 mg/kg/injection, schedule: Q01DX001 (ip), vehicle: Klucel (hydroxypropylcellulose) (HPC)) was 109 % of control.
Regarding `CC(C)(C)C(=O)/C=C/c1ccccc1`, the T/C runs as follows: under setting [8], 94 % of control; under setting [5], 90 % of control; under setting [6], 105 % of control.
As to `NC(Cc1cc(Br)c(O)c(Br)c1)C(=O)O` (stereo not drawn), the T/C under setting [2] was 108 % of control; the T/C under setting [12] was 92 % of control; the T/C (dose: 50.0 mg/kg/injection, schedule: Q04DX003 (ip), vehicle: saline) is 120 % of control; the T/C (dose: 100.0 mg/kg/injection, schedule: Q01DX009 (ip), vehicle: saline) is 96 % of control; the T/C (dose: 100.0 mg/kg/injection, schedule: Q04DX003 (ip), vehicle: saline) was 105 % of control; the T/C (dose: 200.0 mg/kg/injection, schedule: Q01DX009 (ip), vehicle: saline) was 120 % of control. The T/C was 115 % of control (dose: 200.0 mg/kg/injection, schedule: Q04DX003 (ip), vehicle: saline) and 113 % of control (dose: 400.0 mg/kg/injection, schedule: Q01DX009 (ip), vehicle: saline).
For the compound `CCCCC/C(C)=N\Nc1ccccn1`, the T/C was 100 % of control (dose: 12.5 mg/kg/injection, schedule: Q01DX009 (ip), vehicle: Klucel (hydroxypropylcellulose) (HPC)); 113 % of control (dose: 25.0 mg/kg/injection, schedule: Q01DX009 (ip), vehicle: Klucel (hydroxypropylcellulose) (HPC)); 104 % of control and 113 % of control (dose: 50.0 mg/kg/injection, schedule: Q01DX009 (ip), vehicle: Klucel (hydroxypropylcellulose) (HPC)); 118 % of control (dose: 100.0 mg/kg/injection, schedule: Q01DX009 (ip), vehicle: Klucel (hydroxypropylcellulose) (HPC)).
Turning to `Clc1ccc2c(c1)nnn2OC1CCCCCC1`, the T/C by setting is: under setting [8], 101 % of control; under setting [5], 97 % of control; under setting [6], 108 % of control.
Take `COC(=O)c1c(-c2ccccc2)c(-c2ccccc2)nn(-c2ccccc2)c1=O`: the T/C under setting [13] was 87 % of control.
Take `CN(C)c1ccc(/C=C2\C=Cc3ccccc32)cc1Br`: the T/C is, setting by setting: (dose: 25.0 mg/kg/injection, schedule: Q04DX003 (sc), vehicle: olive oil, sesame oil, peanut oil) 95 % of control; (dose: 50.0 mg/kg/injection, schedule: Q04DX003 (sc), vehicle: olive oil, sesame oil, peanut oil) 100 % of control; (dose: 100.0 mg/kg/injection, schedule: Q04DX003 (sc), vehicle: olive oil, sesame oil, peanut oil) 87 % of control.
For the compound `CC(C(=O)O)C(=O)O.[NH2-].[NH2-].[Pt+2]`, the T/C by setting is: under setting [1], 93 % of control; under setting [2], 214 % of control.
In the case of `CN1CCN(C)P1c1ccccc1`, the T/C was 109 % of control under setting [8], 112 % of control under setting [5] and 110 % of control under setting [6].
Turning to `[Mg+2]`, the T/C is 100 % of control (dose: 100.0 mg/kg/injection, schedule: Q01DX010 (ip), vehicle: saline); 100 % of control (dose: 200.0 mg/kg/injection, schedule: Q01DX010 (ip), vehicle: saline); 100 % of control (dose: 400.0 mg/kg/injection, schedule: Q01DX010 (ip), vehicle: saline).
Consider `NNc1ccc([N+](=O)[O-])c2[nH][nH]c(=O)c12`, for which the T/C was 105 % of control under setting [8], 107 % of control under setting [5] and 107 % of control under setting [6].
With `NC(Cc1ccc(Cl)cc1)C(=O)O` (stereo not drawn), the T/C (dose: 200.0 mg/kg/injection, schedule: Q01DX010 (im), vehicle: other) was 90 % of control; the T/C (dose: 400.0 mg/kg/injection, schedule: Q01DX010 (im), vehicle: other) was 90 % of control; the T/C (dose: 600.0 mg/kg/injection, schedule: Q01DX010 (im), vehicle: other) was 90 % of control.
Turning to `CC1=NNB(O)c2ccsc21`, the T/C (dose: 12.5 mg/kg/injection, schedule: Q01DX009 (ip), vehicle: saline with Tween-80) was 107 % of control; the T/C under setting [7] was 90 % of control; the T/C under setting [8] is 96 % of control.
With `CC(O)C#N` (stereo not drawn), the T/C reads like this: (dose: 1.25 mg/kg/injection, schedule: Q01DX009 (ip), vehicle: saline) 108 % of control; (dose: 2.5 mg/kg/injection, schedule: Q01DX009 (ip), vehicle: saline) 101 % of control; (dose: 5.0 mg/kg/injection, schedule: Q01DX009 (ip), vehicle: saline) 101 % of control.
Consider `CCOC(=O)c1cn(COC)c2nc(SC)nc(NC(C)=O)c2c1=O`, for which the T/C is, setting by setting: under setting [3], 105 % of control; under setting [4], 90 % of control; under setting [13], 90 % of control.
Consider `CCCCOCN1CCCCC1`, for which the T/C under setting [9] was 108 % of control, the T/C under setting [10] was 120 % of control and the T/C under setting [11] is 104 % of control.
As to `C=C1C(=O)O[C@@H]2C[C@@H](C)[C@@H]3[C@@H](OC4OC(COC(C)=O)C(O)C(O)C4O)CC(=O)[C@@]3(C)C[C@H]12` (stereo partly drawn), the T/C was 100 % of control (dose: 2.8 mg/kg/injection, schedule: Q01DX009 (ip), vehicle: saline); 122 % of control (dose: 4.2 mg/kg/injection, schedule: Q01DX009 (ip), vehicle: saline); 100 % of control under setting [12]; 105 % of control (dose: 75.0 mg/kg/injection, schedule: Q01DX009 (ip), vehicle: saline).
